Measured values published in US20250154121A1, “CYCLIC(ALKYL)(AMINO)ALKOXY-SUBSTITUTED ARYL-PYRONE COMPOUND AND USE THEREOF” (priority 2022, published 2025).
Read-outs that look alike come from different tables or passages of the source.

Experiments:
[1] = system: Human Coronavirus 229E (HCoV-229E); assay: animal or person; type: in vivo
human coronavirus OC43 = type: in vivo; conditions: Table 6 (Example 17); 90 mg/kg/d gavage for 4 days
[2] = system: Influenza A (H1N1) virus PR8 strain; assay: Mouse pneumonia model infected with influenza A (H1N1) virus PR8 strain (lung index); type: in vivo, ICR mice; conditions: Table 12 (Example 25)
Protocol: (§1) ICR mice were taken and randomly divided by weight class: normal control group, model control group, oseltamivir control group, compound 4, compound F4, compound F5, compound 5, and compound 7 according to their weight class, and each drug was given in two dosage groups (10 mice in each group). Except for the normal control group, mice were slightly anesthetized with ether and infected with 15 LD50 H1N1 influenza virus liquid (FM1/PR8 strain) by nasal drops (30 μl per each animal). The administration was started on the day of infection at 0.2 ml/10 g by gavage each time once a day for 4 days, and the normal control and model control groups were gavaged with distilled water under the same conditions. The mice were weighed and dissected on Day 5, and lung was weighed to calculate lung index and lung index inhibition. The results were statistically processed using t-test for comparison between groups.
(§2) ICR mice were taken and randomly divided into 9 groups according to the body weight: a normal control group, model control group, oseltamivir control group, and two dosage groups of Compound 9, Compound 12 and Compound 2, 10 mice in each group. Except the normal control group, mice were slightly anesthetized with ether and infected with 15 LD50 H1N1/PR8 influenza virus liquid by nasal drops at 30 μl per mouse. The administration was started on the day of infection, at 0.2 ml/10 g each time by gavage once a day for 4 days, and the normal control and model control groups were gavaged with distilled water under the same conditions. The mice were weighed and dissected on Day 5, and lungs were weighed to calculate lung index and lung index inhibition. The results were statistically processed using t-test for comparison between groups.

[3] = system: Influenza A (H1N1) virus FM1 strain; assay: Mouse pneumonia model infected with influenza A (H1N1) virus FM1 strain (lung index); type: in vivo, ICR mice; conditions: Table 13 (Example 25)
Protocol: ICR mice were taken and randomly divided into: normal control group, model control group, ribavirin control group, compound 4, compound F1, compound F2, and compound F3 according to their weight class, and each drug was given in two dosage groups (10 mice in each group). Except for the normal control group, mice were slightly anesthetized with ether and infected with 15 LD50 H1N1 influenza virus liquid FM1 strain by nasal drops (30 μl per animal). The administration was started on the day of infection at 0.2 ml/10 g by gavage each time once a day for 4 days, and the normal control and model control groups were gavaged with distilled water under the same conditions. The mice were weighed and dissected on Day 5, and the lung was weighed to calculate lung index and lung index inhibition. The results were statistically processed using t-test for comparison between groups.
as §1, §2

[4] = system: Sendai strain of parainfluenza virus; type: in vivo; conditions: Table 11 (Example 24)
[5] = Acute toxicity test in mice (single gavage, 14-day observation); type: in vivo
Protocol: Seventy ICR mice, weighing 17-21 g, were randomly divided into 7 groups according to fasting body weight: a normal control group and 6 dose groups of 475, 633, 844, 1125, 1500 and 2000 mg of the test drug (compound 4)/kg, 10 mice in each group, 50/50 male and female. After fasting for about 15 h, each dosing group was administered once by gavage in a volume of 40 ml/kg, and the control group was gavaged with an equal volume of 0.5% sodium carboxymethylcellulose solution once/day, and the animals were observed continuously for 14 days after administration of the drug to observe the death of the animals.
Thirty ICR mice, weighing 17-21 g, were randomly divided into three groups according to their fasting body weight: a normal control group and 2000 mg and 4000 mg of test drug (Compound 12)/kg dose group, 10 mice in each group, 50/50 male and female. After fasting for about 15 h, each dosing group was given the drug once by gavage in a volume of 40 ml/kg, and the control group was given an equal volume of 0.5% sodium carboxymethylcellulose solution by gavage once/day, and the deaths of the animals were observed continuously for 14 days after the administration of the drug.

For `CCN(CC)CCCC(C)Nc1ccnc2cc(Cl)ccc12` (stereo not drawn) [Chloroquine, chloroquine phosphate, reference compound], the inhibition in vivo at 90 mg/kg/day ([1]; Human coronavirus 229E, in Mus musculus, po, 96 h, read-out: inhibition rate (%), Table 4 (Example 15), 90 mg/kg/d gavage for 4 days) was 31.3%, the inhibition in vivo at 90 mg/kg/day ([1]; Human coronavirus 229E, in Mus musculus, po, 96 h, read-out: inhibition rate (%), Table 5 (Example 16), 90 mg/kg/d gavage for 4 days) was 56.2% and the inhibition in vivo at 90 mg/kg/day ([1]; Human coronavirus 229E, in Mus musculus, po, 96 h, read-out: inhibition rate (%), Table 10 (Example 23), 90 mg/kg/d gavage for 4 days) was 52.9%. The inhibition in vivo at 90 mg/kg/day ([1]; Human coronavirus 229E, in Mus musculus, po, 96 h, read-out: inhibition rate (%), Table 14 (Example 26), 90 mg/kg/d gavage for 4 days) was 62.8%, the lung index ([1]; Table 4 (Example 15), 90 mg/kg/d gavage for 4 days) was 0.78 ± 0.04 g lung weight × 100/g body weight and the lung index ([1]; Table 5 (Example 16), 90 mg/kg/d gavage for 4 days) was 0.70 ± 0.04 g lung weight × 100/g body weight. For the same compound, the lung index ([1]; Table 10 (Example 23), 90 mg/kg/d gavage for 4 days) was 0.80 ± 0.02 g lung weight × 100/g body weight, the lung index ([1]; Table 14 (Example 26), 90 mg/kg/d gavage for 4 days) was 0.83 ± 0.05 g lung weight × 100/g body weight and the “inhibition rate %” value (human coronavirus OC43) was 42.72%. The lung index (human coronavirus OC43) was 0.80 ± 0.05 g lung weight × 100/g body weight.
In the case of `CN(CCOc1ccc2c(=O)c(-c3ccccc3)coc2c1)C1CC1` [Compound 9], the inhibition rate % ([2]; 7.5 mg/kg/d gavage for 4 days) is reported as 58.71%, the lung index ([2]; 7.5 mg/kg/d gavage for 4 days) is reported as 0.74 ± 0.046 Lung weight * 100/body weight and the inhibition rate % ([2]; 15 mg/kg/d gavage for 4 days) is reported as 91.64%. For the same compound, the lung index ([2]; 15 mg/kg/d gavage for 4 days) was 0.71 ± 0.060 Lung weight * 100/body weight, the inhibition in vivo at 7.5 mg/kg/day ([1]; Human coronavirus 229E, in Mus musculus, po, 96 h, Table 10 (Example 23), 7.5 mg/kg/d gavage for 4 days, read-out: inhibition rate (%)) was 46.5% and the lung index ([1]; Table 10 (Example 23), 7.5 mg/kg/d gavage for 4 days) was 0.81 ± 0.10 g lung weight × 100/g body weight. For the same compound, the inhibition rate % ([3]; 7.5 mg/kg/d gavage for 4 days) was 79.57%, the lung index ([3]; 7.5 mg/kg/d gavage for 4 days) was 0.72 ± 0.069 Lung weight * 100/body weight and the inhibition rate % ([3]; 15 mg/kg/d gavage for 4 days) was 84.63%. The lung index ([3]; 15 mg/kg/d gavage for 4 days) was 0.71 ± 0.052 Lung weight * 100/body weight, the inhibition rate % ([4]; 7.5 mg/kg/d gavage for 4 days) was 40.51% and the lung index ([4]; 7.5 mg/kg/d gavage for 4 days) was 0.79 ± 0.05 Lung weight * 100/body weight. For the same compound, the inhibition rate % ([4]; 15 mg/kg/d gavage for 4 days) was 55.59% and the lung index ([4]; 15 mg/kg/d gavage for 4 days) was 0.77 ± 0.05 Lung weight * 100/body weight.
In the case of `CC(C)N(CCOc1ccc2c(=O)c(-c3ccccc3)coc2c1)C1CC1` [Compound 12], the inhibition rate % ([2]; 7.5 mg/kg/d gavage for 4 days) is reported as 63.78%, the lung index ([2]; 7.5 mg/kg/d gavage for 4 days) is reported as 0.74 ± 0.091 Lung weight * 100/body weight and the inhibition rate % ([2]; 15 mg/kg/d gavage for 4 days) is reported as 76.54%. For the same compound, the lung index ([2]; 15 mg/kg/d gavage for 4 days) was 0.72 ± 0.076 Lung weight * 100/body weight, the inhibition in vivo at 7.5 mg/kg/day ([1]; Human coronavirus 229E, in Mus musculus, po, 96 h, Table 14 (Example 26), 7.5 mg/kg/d gavage for 4 days, read-out: inhibition rate (%)) was 39.8% and the inhibition in vivo at 15 mg/kg/day ([1]; Human coronavirus 229E, in Mus musculus, po, 96 h, Table 14 (Example 26), 15 mg/kg/d gavage for 4 days, read-out: inhibition rate (%)) was 68.4%. For the same compound, the lung index ([1]; Table 14 (Example 26), 7.5 mg/kg/d gavage for 4 days) was 0.86 ± 0.04 g lung weight × 100/g body weight, the lung index ([1]; Table 14 (Example 26), 15 mg/kg/d gavage for 4 days) was 0.82 ± 0.07 g lung weight × 100/g body weight and the inhibition rate % ([3]; 7.5 mg/kg/d gavage for 4 days) was 70.82%. The lung index ([3]; 7.5 mg/kg/d gavage for 4 days) was 0.73 ± 0.070 Lung weight * 100/body weight, the inhibition rate % ([3]; 15 mg/kg/d gavage for 4 days) was 93.59% and the lung index ([3]; 15 mg/kg/d gavage for 4 days) was 0.71 ± 0.042 Lung weight * 100/body weight. The animal deaths ([5]; 2000 and 4000 mg of the drug/kg single gavage, 14 days observation) was “No animals died”, the “maximum concentration that could be administered by gavage, with no death of the animals” value ([5]; acute toxicity, mice) was 4000 mg/kg and the inhibition rate % ([4]; 7.5 mg/kg/d gavage for 4 days) was 57.49%. For the same compound, the lung index ([4]; 7.5 mg/kg/d gavage for 4 days) was 0.77 ± 0.04 Lung weight * 100/body weight, the inhibition rate % ([4]; 15 mg/kg/d gavage for 4 days) was 61.91% and the lung index ([4]; 15 mg/kg/d gavage for 4 days) was 0.76 ± 0.03 Lung weight * 100/body weight.
